Measurements as given in PubChem BioAssay AID2060487 (Molecular Pharmacology Branch, DTP, NCI, 2025).

Tested on: 997537-175-T-J1-PDC complex spheroid viability
Assay: Anticancer human tumor 997537-175-T-J1-PDC patient-derived colon adenocarcinoma cell line growth inhibition [GQUAD]
Details: for IC50: curve of first compound; for viability, T/C: stronger effect = lower value
Outline: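 Viability of tumor cells grown as complex spheroids with endothelial and stromal cells, exposed to drug combinations. Top concentration at or near clinical Cmax (else 10 microM), diluted in half-log increments.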

[1] = second compound 0.0316 µM, first compound 0.0316 µM
[2] = second compound 0.0316 µM, first compound 0.1 µM
[3] = second compound 0.0316 µM, first compound 0.316 µM
[4] = second compound 0.0316 µM, first compound 1 µM
[5] = second compound 0.0316 µM, first compound 3.16 µM
[6] = second compound 0.0316 µM, first compound 10 µM
[7] = second compound 0.1 µM, first compound 0.0316 µM
[8] = second compound 0.1 µM, first compound 0.1 µM
[9] = second compound 0.1 µM, first compound 0.316 µM
[10] = second compound 0.1 µM, first compound 1 µM
[11] = second compound 0.1 µM, first compound 3.16 µM
[12] = second compound 0.1 µM, first compound 10 µM
[13] = second compound 0.316 µM, first compound 0.0316 µM
[14] = second compound 0.316 µM, first compound 0.1 µM
[15] = second compound 0.316 µM, first compound 0.316 µM
[16] = second compound 0.316 µM, first compound 1 µM
[17] = second compound 0.316 µM, first compound 3.16 µM
[18] = second compound 0.316 µM, first compound 10 µM
[19] = second compound 1 µM, first compound 0.0316 µM
[20] = second compound 1 µM, first compound 0.1 µM
[21] = second compound 1 µM, first compound 0.316 µM
[22] = second compound 1 µM, first compound 1 µM
[23] = second compound 1 µM, first compound 3.16 µM
[24] = second compound 1 µM, first compound 10 µM
[25] = second compound 3.16 µM, first compound 0.0316 µM
[26] = second compound 3.16 µM, first compound 0.1 µM
[27] = second compound 3.16 µM, first compound 0.316 µM
[28] = second compound 3.16 µM, first compound 1 µM
[29] = second compound 3.16 µM, first compound 3.16 µM
[30] = second compound 3.16 µM, first compound 10 µM
[31] = second compound 10 µM, first compound 0.0316 µM
[32] = second compound 10 µM, first compound 0.1 µM
[33] = second compound 10 µM, first compound 0.316 µM
[34] = second compound 10 µM, first compound 1 µM
[35] = second compound 10 µM, first compound 3.16 µM
[36] = second compound 10 µM, first compound 10 µM
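Also: spheroids exposed to the agents for 7 days.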
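For viability, T/C in this document: 100% = DMSO vehicle control viability.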

C=CC(=O)N1CCN(c2nc(=O)n(-c3c(C)ccnc3C(C)C)c3nc(-c4c(O)cccc4F)c(F)cc23)C(C)C1 (stereo not drawn) + CN(C)c1ccc(Nc2c3ccc(NC(=O)CCN4CCCC4)cc3nc3cc(NC(=O)CCN4CCCC4)ccc23)cc1
IC50 (second compound 0.0316 µM): > 10 µM | IC50 (second compound 0.1 µM): > 10 µM | IC50 (second compound 0.316 µM): > 10 µM | IC50 (second compound 1 µM): > 10 µM | IC50 (second compound 3.16 µM): > 10 µM | IC50 (second compound 10 µM): > 10 µM | viability, T/C [1]: 103% | viability, T/C [2]: 99.2% | viability, T/C [3]: 86.6% | viability, T/C [4]: 68.8% | viability, T/C [5]: 70.6% | viability, T/C [6]: 85.6% | viability, T/C [7]: 87.7% | viability, T/C [8]: 88.4% | viability, T/C [9]: 93.5% | viability, T/C [10]: 82.1% | viability, T/C [11]: 95.7% | viability, T/C [12]: 89.8% | viability, T/C [13]: 90.7% | viability, T/C [14]: 98.5% | viability, T/C [15]: 88.7% | viability, T/C [16]: 77.5% | viability, T/C [17]: 92.4% | viability, T/C [18]: 74.7% | viability, T/C [19]: 89.5% | viability, T/C [20]: 93.1% | viability, T/C [21]: 97.7% | viability, T/C [22]: 67.9% | viability, T/C [23]: 104% | viability, T/C [24]: 96.2% | viability, T/C [25]: 69.1% | viability, T/C [26]: 81.1% | viability, T/C [27]: 91.2% | viability, T/C [28]: 83.5% | viability, T/C [29]: 97.6% | viability, T/C [30]: 81.2% | viability, T/C [31]: 77% | viability, T/C [32]: 85.7% | viability, T/C [33]: 91.2% | viability, T/C [34]: 98.4% | viability, T/C [35]: 91.2% | viability, T/C [36]: 93.9%

COc1ccc([C@@H](O)c2cc(-c3ncnc4cc(N5CCOCC5)ccc34)c(F)cc2Cl)nn1 + CN(C)c1ccc(Nc2c3ccc(NC(=O)CCN4CCCC4)cc3nc3cc(NC(=O)CCN4CCCC4)ccc23)cc1
IC50 (second compound 0.0316 µM): > 10 µM | IC50 (second compound 0.1 µM): > 10 µM | IC50 (second compound 0.316 µM): > 10 µM | IC50 (second compound 1 µM): > 10 µM | IC50 (second compound 3.16 µM): > 10 µM | IC50 (second compound 10 µM): > 10 µM | viability, T/C [1]: 90.2% | viability, T/C [2]: 77.6% | viability, T/C [3]: 102% | viability, T/C [4]: 75% | viability, T/C [5]: 72.4% | viability, T/C [6]: 90% | viability, T/C [7]: 97% | viability, T/C [8]: 90.7% | viability, T/C [9]: 78.9% | viability, T/C [10]: 68.4% | viability, T/C [11]: 78% | viability, T/C [12]: 96.9% | viability, T/C [13]: 85.9% | viability, T/C [14]: 65.8% | viability, T/C [15]: 90.1% | viability, T/C [16]: 60.3% | viability, T/C [17]: 81.9% | viability, T/C [18]: 84.9% | viability, T/C [19]: 77.8% | viability, T/C [20]: 82.5% | viability, T/C [21]: 86.6% | viability, T/C [22]: 67.1% | viability, T/C [23]: 100% | viability, T/C [24]: 95.2% | viability, T/C [25]: 84% | viability, T/C [26]: 64.4% | viability, T/C [27]: 93.8% | viability, T/C [28]: 86.1% | viability, T/C [29]: 108% | viability, T/C [30]: 76.3% | viability, T/C [31]: 82.9% | viability, T/C [32]: 86.2% | viability, T/C [33]: 93% | viability, T/C [34]: 84.7% | viability, T/C [35]: 95.2% | viability, T/C [36]: 74.1%

CC1COCCN1c1cc(C2(O)CC3CCC(C2)O3)c2cnn(-c3ccn[nH]3)c2n1 (stereo not drawn) + Cc1[nH]c2ccc(F)cc2c1-c1nc2c3cccnc3c3ncccc3c2[nH]1
IC50 (second compound 0.0316 µM): 0.303 µM | IC50 (second compound 0.1 µM): 0.355 µM | IC50 (second compound 0.316 µM): 0.305 µM | IC50 (second compound 1 µM): 0.155 µM | IC50 (second compound 3.16 µM): < 0.0316 µM | IC50 (second compound 10 µM): 0.0746 µM | viability, T/C [1]: 74.3% | viability, T/C [2]: 56.8% | viability, T/C [3]: 62.4% | viability, T/C [4]: 22.3% | viability, T/C [5]: 40.2% | viability, T/C [6]: 56% | viability, T/C [7]: 75.3% | viability, T/C [8]: 59.5% | viability, T/C [9]: 57.9% | viability, T/C [10]: 32.7% | viability, T/C [11]: 45.4% | viability, T/C [12]: 52.7% | viability, T/C [13]: 78.7% | viability, T/C [14]: 61.9% | viability, T/C [15]: 45.5% | viability, T/C [16]: 38.6% | viability, T/C [17]: 54% | viability, T/C [18]: 60.4% | viability, T/C [19]: 54.7% | viability, T/C [20]: 57.6% | viability, T/C [21]: 44.9% | viability, T/C [22]: 40.8% | viability, T/C [23]: 38.7% | viability, T/C [24]: 61.4% | viability, T/C [25]: 55.1% | viability, T/C [26]: 34.3% | viability, T/C [27]: 44% | viability, T/C [28]: 29.2% | viability, T/C [29]: 44.5% | viability, T/C [30]: 60.4% | viability, T/C [31]: 61.2% | viability, T/C [32]: 44.8% | viability, T/C [33]: 42.5% | viability, T/C [34]: 43.6% | viability, T/C [35]: 31.9% | viability, T/C [36]: 41.3%

CC(C)n1c(=O)n(C)c2cnc3cc(F)c(-c4ccc(OCCCN5CCCCC5)nc4)cc3c21 + CN(C)c1ccc(Nc2c3ccc(NC(=O)CCN4CCCC4)cc3nc3cc(NC(=O)CCN4CCCC4)ccc23)cc1
IC50 (second compound 0.0316 µM): > 10 µM | IC50 (second compound 0.1 µM): > 10 µM | IC50 (second compound 0.316 µM): > 10 µM | IC50 (second compound 1 µM): > 10 µM | IC50 (second compound 3.16 µM): > 10 µM | IC50 (second compound 10 µM): > 10 µM | viability, T/C [1]: 104% | viability, T/C [2]: 91.2% | viability, T/C [3]: 101% | viability, T/C [4]: 87% | viability, T/C [5]: 83% | viability, T/C [6]: 108% | viability, T/C [7]: 93.8% | viability, T/C [8]: 86% | viability, T/C [9]: 104% | viability, T/C [10]: 64% | viability, T/C [11]: 96.2% | viability, T/C [12]: 98.7% | viability, T/C [13]: 98.4% | viability, T/C [14]: 81.9% | viability, T/C [15]: 95.9% | viability, T/C [16]: 82.7% | viability, T/C [17]: 93.7% | viability, T/C [18]: 95.2% | viability, T/C [19]: 76% | viability, T/C [20]: 89.8% | viability, T/C [21]: 88.9% | viability, T/C [22]: 93.8% | viability, T/C [23]: 92% | viability, T/C [24]: 95% | viability, T/C [25]: 74.3% | viability, T/C [26]: 85.4% | viability, T/C [27]: 91.7% | viability, T/C [28]: 104% | viability, T/C [29]: 106% | viability, T/C [30]: 93.3% | viability, T/C [31]: 86.6% | viability, T/C [32]: 71.7% | viability, T/C [33]: 103% | viability, T/C [34]: 96.7% | viability, T/C [35]: 103% | viability, T/C [36]: 98.4%
